Laboratory results reported in paper PMC7038160, “Design, Synthesis, and Evaluation of Acetylcholinesterase and Butyrylcholinesterase Dual-Target Inhibitors against Alzheimer’s Diseases” (Molecules, 2020).
“Also recorded” adds a separate entry of the source.

Legend:
[1] = biological target: T1, AChE from Electrophorus electricus (eeAChE) (Electrophorus electricus, UniProt O42275); experiment: biochemical; format: biochemical; conditions: for SI (selectivity index = AChE IC50/BChE IC50): eeAChE IC50 / eqBChE IC50; for IC50 / AChE IR (inhibitory rate): eeAChE from electric eel; for IC50: mean ± SEM of triplicate independent experiments; for AChE IR (inhibitory rate): compounds under 100 μM
T1 construct: purchased Sigma-Aldrich
Procedure: (§1) According to the method described by Ellman, the data were expressed by IC50 values.
(§2) The inhibitory activity of the target compound against AChE (from Electrophorus electricus (eeAChE), Sigma-Aldrich, Munich, Germany) and horse serum BChE (eqBChE, Sigma-Aldrich, Munich, Germany) were measured by Ellman’s method. In 96-well plates, a mixture of phosphate buffer (0.1 M, pH 8.0, […]), 5,5′-dithiobis-2-nitrobenzoic acid (DTNB, 60 μL), acetylcholinesterase or butyrylcholinesterase (20 μL, 5 IU/mL) and different concentrations of the compounds solution (30 μL) was pre-incubated for 5 min and then substrates (acetylthiocholine iodide or butyrylthiocholine iodide, 20 μL) were added.
(§3) The measurement of each concentration for each compound was detected in triplicate. GraphPad Prism 6.0 (GraphPad Software, Inc., La Jolla, CA, USA) was used for data processing. The inhibition curve was fitted by plotting the logarithm of the concentration of the tested compounds with the percentage of enzyme activity (reference to 100%). The (IC50) value was calculated according to the inhibition curve and the data were shown in the layout of mean ± SEM by GraphPad Prism 6.0.

[2] = biological target: T2, horse serum BChE (eqBChE) (Equus caballus, UniProt P81908); experiment: biochemical; format: biochemical; conditions: eqBChE from horse serum; for IC50: mean ± SEM of triplicate independent experiments; for BChE IR (inhibitory rate): compounds under 100 μM
T2 construct: horse serum BChE (eqBChE, Sigma-Aldrich, Munich, Germany); purchased Sigma-Aldrich; host or cells: horse serum
Procedure: as §1, §2, §3

eeAChE = biological target: T3, eeAChE (Electrophorus electricus, UniProt O42275); experiment: Kinetics of AChE inhibition (Lineweaver–Burk plots); format: biochemical, Electrophorus electricus (electric eel); conditions: substrate 90-904 μM
T3 construct: purchased Sigma-Aldrich
Procedure: (§4) To determine the kinetic types of AChE and BChE inhibition, compounds 8i and 10s were selected for kinetic studies. In each case, the kinetic types of enzyme inhibition were obtained by the modified Ellman’s method and the Lineweaver–Burk secondary plots. […] According to the result of molecular docking study.
(§5) Kinetic studies were performed in the same manner as the determination of ChEs inhibition, with substrate (ATC/BTC) concentrations of 90, 150, 226, 452 and 904 μM. The concentration of compound 8i was set to 0, 0.25, 0.5, 0.75, 1 μM, and the concentration of compound 10s was set to 1, 2.5, 5, 7.5, 10 μM. The enzymatic reaction was extended to 7 min for eeAChE and eqBChE before the determination of the absorption. The Vmax and Km values of Michaelis-Menten kinetics were calculated by nonlinear regression from the substrate-velocity curves using GraphPad Prism 6.0. Linear regression was used to fit the Lineweaver–Burk plot.

eqBChE [3] = biological target: T4, eqBChE (Equus caballus, UniProt P81908); experiment: Kinetics of BChE inhibition (Lineweaver–Burk plots); format: biochemical; conditions: substrate 90-904 μM
T4 construct: horse serum BChE (eqBChE, Sigma-Aldrich, Munich, Germany); purchased Sigma-Aldrich; host or cells: horse serum
Procedure: as §4, §5

PC12 cells = experiment: Cytotoxicity in PC12 cells (MTT assay); format: cell-based; conditions: 10, 20, 30 and 50 μM, 24 h
Procedure: We focused on the cytotoxicity of the synthetic compounds. The reason for using PC12 is that our compounds act on the central nervous system, so we need to find out whether the compound has a toxic effect on normal nerve cells. Compounds 6b, 6c, 6d, 10s, 8i, and 10v were selected as representative compounds to assess their potential cytotoxic effects.
Pheochromocytoma-derived cell line (PC12 cells) were grown in Dulbecco’s Modified Eagle Medium (DMEM) supplemented with 10% FBS at 37 °C in a humidified atmosphere containing 5% CO2. To carry out the experiment, cells (6 × 10^3 cells/well) were seeded in 96-well plate in complete medium. […]

eqBChE [4] = biological target: T4, eqBChE; set-up: method as in earlier work; conditions: lead compound from previous virtual screening; cited from earlier work

T1 sequence (O42275 24-633): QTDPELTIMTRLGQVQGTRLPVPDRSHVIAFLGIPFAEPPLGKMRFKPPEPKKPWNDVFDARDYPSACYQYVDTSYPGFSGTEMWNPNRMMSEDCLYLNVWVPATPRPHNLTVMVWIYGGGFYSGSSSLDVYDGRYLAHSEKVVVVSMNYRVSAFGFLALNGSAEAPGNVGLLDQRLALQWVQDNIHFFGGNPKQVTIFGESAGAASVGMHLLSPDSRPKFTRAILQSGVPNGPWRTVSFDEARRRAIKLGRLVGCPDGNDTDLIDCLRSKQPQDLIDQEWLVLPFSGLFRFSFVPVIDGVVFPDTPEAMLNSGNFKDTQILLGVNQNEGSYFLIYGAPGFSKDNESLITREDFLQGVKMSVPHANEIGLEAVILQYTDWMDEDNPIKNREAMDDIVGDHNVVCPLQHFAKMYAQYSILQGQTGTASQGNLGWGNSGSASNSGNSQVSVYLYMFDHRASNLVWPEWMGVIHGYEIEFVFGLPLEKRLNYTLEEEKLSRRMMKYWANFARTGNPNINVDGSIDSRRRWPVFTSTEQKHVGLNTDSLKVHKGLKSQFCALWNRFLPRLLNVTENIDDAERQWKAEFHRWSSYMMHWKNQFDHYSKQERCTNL
T2 sequence (P81908 whole entry): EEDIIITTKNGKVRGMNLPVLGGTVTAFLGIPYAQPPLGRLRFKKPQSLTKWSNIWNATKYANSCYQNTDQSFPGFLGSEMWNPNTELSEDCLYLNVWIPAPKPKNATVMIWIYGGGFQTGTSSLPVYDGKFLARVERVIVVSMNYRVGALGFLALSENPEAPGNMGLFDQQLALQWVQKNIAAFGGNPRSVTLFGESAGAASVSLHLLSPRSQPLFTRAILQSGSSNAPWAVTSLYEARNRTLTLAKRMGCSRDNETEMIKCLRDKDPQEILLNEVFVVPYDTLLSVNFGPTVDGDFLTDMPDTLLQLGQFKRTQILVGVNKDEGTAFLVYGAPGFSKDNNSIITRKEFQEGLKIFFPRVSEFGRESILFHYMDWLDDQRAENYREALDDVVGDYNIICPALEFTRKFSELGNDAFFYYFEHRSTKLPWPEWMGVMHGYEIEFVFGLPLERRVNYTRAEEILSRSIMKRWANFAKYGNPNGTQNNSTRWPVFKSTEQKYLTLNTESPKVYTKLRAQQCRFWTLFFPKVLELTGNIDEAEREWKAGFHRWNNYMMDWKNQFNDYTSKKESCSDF
T4 sequence (P81908 whole entry): as above
T3 sequence (O42275 24-633): as the sequence (O42275 24-633) above

Row | SMILES | SI (selectivity index = AChE IC50/BChE IC50) [1] | IC50 [1] [µM] | IC50 [2] [µM] | AChE IR (inhibitory rate) [1] | BChE IR (inhibitory rate) [2] [%] | further results
1 | Cc1ccc(S(=O)(=O)NCC2CCN(Cc3ccccc3)CC2)cc1 [Compound 10s, N-((1-Benzylpiperidin-4-yl)methyl)-4-methylbenzenesulfonamide] | 1.03 | 4.24 ± 2.44 | 4.1 ± 3.74 | – | – | kinetic type of AChE inhibition (eeAChE): same inhibition type; kinetic type of BChE inhibition (eqBChE [3]): same inhibition type; cytotoxicity compared with Tacrine (PC12 cells): slightly more toxic than Tacrine
2 | O=C1Cc2cc(C(=O)NCC3CCN(Cc4ccccc4)CC3)ccc2N1 [Compound 8i, N-((1-Benzylpiperidin-4-yl)methyl)-2-Oxoindoline-5-carboxamide] | 1.39 | 0.39 ± 0.04 | 0.28 ± 0.1 | – | – | kinetic type of AChE inhibition (eeAChE): mixed-type inhibition; kinetic type of BChE inhibition (eqBChE [3]): mixed-type inhibition; cytotoxicity compared with Tacrine (PC12 cells): lower than that of Tacrine; also recorded: less toxic than Tacrine; also recorded: lowest toxicity
3 | O=C1Cc2cc(C(=O)NCC3CCN(Cc4ccccc4Cl)CC3)ccc2N1 [Compound 8j, N-((1-(2-Chlorobenzyl)piperidin-4-yl)methyl)-2-Oxoindoline-5-carboxamide] | – | – | – | 14.69% | 22.87 | –
4 | O=C(NCC1CCN(Cc2ccccc2Cl)CC1)c1ccc2[nH]nnc2c1 [Compound 6g, N-((1-(2-Chlorobenzyl)piperidin-4-yl)methyl)-1H-benzo[d][1,2,3]triazole-5-carboxamide] | 0.58 | 29.2 ± 16.4 | 49.9 ± 37.3 | – | – | –
5 | COc1ccc(CN2CCC(CNS(=O)(=O)c3ccc(C)cc3)CC2)cc1 [Compound 10u, N-((1-(4-Methoxybenzyl)piperidin-4-yl)methyl)-4-methylbenzenesulfonamide] | – | – | – | 11.61% | 18.31 | –
6 | O=C(CC1CCN(CCc2ccccc2)CC1)Nc1ccc2[nH]cnc2c1 [Compound 16c, N-(1H-Benzo[d]imidazol-5-yl)-2-(1-phenethylpiperidin-4-yl)acetamide] | – | – | – | no inhibitory activity and no | 30.59 | –
7 | O=C(CC1CCN(CCc2ccccc2)CC1)Nc1ccc2[nH]ccc2c1 [Compound 16a, N-(1H-Indol-5-yl)-2-(1-phenethylpiperidin-4-yl)acetamide] | – | – | – | 8.61% | 23.49 | –
8 | Cc1ccc(S(=O)(=O)NCC2CCN(Cc3ccc(C(F)(F)F)cc3)CC2)cc1 [Compound 10v, 4-Methyl-N-((1-(4-(trifluoromethyl)benzyl)piperidin-4-yl)methyl)benzenesulfonamide] | 1.01 | – | 7.14 ± 5.27 | – | – | –
9 | O=C(NCC1CCN(Cc2ccccc2Cl)CC1)c1ccc2[nH]ccc2c1 [Compound 6b, N-((1-(2-Chlorobenzyl)piperidin-4-yl)methyl)-1H-Indole-5-carboxamide] | 1.57 | 15 ± 6.17 | 9.56 ± 4.52 | – | – | –
10 | O=C(NCC1CCN(Cc2ccccc2)CC1)c1ccc2[nH]ccc2c1 [Compound 6a, N-((1-Benzylpiperidin-4-yl)methyl)-1H-indole-5-carboxamide] | 1.66 | 52.1 ± 30.2 | 31.4 ± 15.6 | – | – | –
11 | O=C(NCC1CCN(Cc2ccc(C(F)(F)F)cc2)CC1)c1ccc2[nH]cnc2c1 [Compound 6e, N-((1-(4-(Trifluoromethyl)benzyl)piperidin-4-yl)methyl)-1H-benzo[d]imidazole-5-carboxamide] | – | 48.5 ± 36.2 | – | – | 39.88 | –
12 | O=C(NCC1CCN(Cc2ccccc2)CC1)c1ccc2[nH]cnc2c1 [Compound 6d, N-((1-Benzylpiperidin-4-yl)methyl)-1H-benzo[d]imidazole-5-carboxamide] | 2.23 | 4.8 ± 0.68 | 2.15 ± 0.63 | – | – | cytotoxicity compared with Tacrine (PC12 cells): less toxic than Tacrine
13 | O=C(NCC1CCN(Cc2ccccc2)CC1)c1ccc2[nH]ncc2c1 [Compound 6c, N-((1-Benzylpiperidin-4-yl)methyl)-1H-indazole-5-carboxamide] | 0.25 | 9.06 ± 2.57 | 36.6 ± 17.5 | – | – | cytotoxicity compared with Tacrine (PC12 cells): less toxic than Tacrine
14 | O=C(CC1CCN(CCc2ccccc2Cl)CC1)Nc1ccc2[nH]cnc2c1 [Compound 16d, N-(1H-Benzo[d]imidazol-5-yl)-2-(1-(2-chlorophenethyl)piperidin-4-yl)acetamide] | – | – | – | 8.55% | 38.04 | –
15 | O=C(CC1CCN(CCc2ccccc2Cl)CC1)Nc1ccc2[nH]ccc2c1 [Compound 16b, 2-(1-(2-Chlorophenethyl)piperidin-4-yl)-N-(1H-indol-5-yl)acetamide] | – | – | – | 8.95% | 31.21 | –
16 | O=C1Cc2cc(C(=O)NCC3CCN(Cc4ccc(C(F)(F)F)cc4)CC3)ccc2N1 [Compound 8l, 2-Oxo-N-((1-(4-(trifluoromethyl)benzyl)piperidin-4-yl)methyl)indoline-5-carboxamide] | – | 21.5 ± 9.37 | – | – | 35.20 | –
17 | COc1ccc(CN2CCC(CNC(=O)c3ccc4[nH]nnc4c3)CC2)cc1 [Compound 6f, N-((1-(4-Methoxybenzyl)piperidin-4-yl)methyl)-1H-benzo[d][1,2,3]triazole-5-carboxamide] | – | – | – | 43.07% | 49.63 | –
18 | COc1ccc(CN2CCC(CNC(=O)c3ccc4[nH]cnc4c3)CC2)cc1 [Compound 11d] | – | – | – | 18.81% | – | –
19 | COc1ccc(CN2CCC(CNC(=O)c3ccc4[nH]ncc4c3)CC2)cc1 [Compound 11b] | – | – | – | 48.57% | – | –
20 | COc1ccc(CN2CCC(CNC(=O)c3ccc4c(c3)CC(=O)N4)CC2)cc1 [Compound 8k, N-((1-(4-Methoxybenzyl)piperidin-4-yl)methyl)-2-Oxoindoline-5-carboxamide] | – | – | – | no | 22.26 | –
21 | Cn1c(=O)n(C)c2cc(S(=O)(=O)NCC3CCN(Cc4ccc(F)cc4)CC3)ccc21 [Compound G801-0274] | – | – | – | – | – | IC50 (eqBChE [4]): 0.03 µM
22 | O=C(NCC1CCN(Cc2ccc(C(F)(F)F)cc2)CC1)c1ccc2[nH]nnc2c1 [Compound 6h, N-((1-(4-(Trifluoromethyl)benzyl)piperidin-4-yl)methyl)-1H-benzo[d][1,2,3]triazole-5-carboxamide] | – | 40.2 ± 27.6 | – | – | 30.71 | –
23 | Cc1ccc(S(=O)(=O)NCC2CCN(Cc3ccccc3Cl)CC2)cc1 [Compound 10t, N-((1-(2-Chlorobenzyl)piperidin-4-yl)methyl)-4-methylbenzenesulfonamide] | 2.74 | 5.5 ± 2.56 | 2.01 ± 0.7 | – | – | –
